# Test results from patent US6130243A, “1,4-benzodioxin derivatives” (Nisshin Flour Milling Co., Ltd., priority 1995, dated 2000).
# Where a name gives a salt, the structure may show the parent alone.
# Experiments:
# β3 [1] = target: T1, β3 (Rattus norvegicus, UniProt P26255); settings: Nature, Vol. 309, 163, 1984; cited from earlier work
# T1 construct: determined by their activity to stimulate adipocyte lipolysis; from tissue; host or cells: adipocytes isolated with collagenase from rat epididymal fat pads
# β3 [2] = settings: cited from earlier work
# β1 or β2 = settings: thought to cause side-effects; cited from earlier work
# [3] = system: animal models of type II diabetes; settings: in vivo; cited from earlier work
# [4] = in vivo; cited from earlier work
# β3 [5] = target: T1, β3; test: β3 agonisitic activity in rats (stimulation of adipocyte lipolysis, rat epididymal fat pads); format: cell-based; settings: rat adipocytes, 37° C., 120 minutes; EC50 relative to compound's own maximum rate of lipolysis; hydrochloride; read-out: Lipolysis Molar EC50 value
# Protocol: β3 agonisitic activity in rats
# The β3 agonisitic effect of the compounds of the present invention was determined by their activity to stimulate adipocyte lipolysis. Rat epididymal fat pads were excised and placed in a buffer containing the following composition: 130 mM sodium chloride, 4.7 mM potassium chloride, 1.25 mM magnesium sulfate, 2.8 mM calcium chloride, 10 mM HEPES, 2.5 mM sodium dihydrogenphosphate, 1 g/l glucose and 1% fatty acid-free serum albumin (pH 7.6). All the following procedures were carried out in the above-mentioned buffer. 5 g of a tissue was transferred to a plastic bottle with 10 ml of the buffer solution in which 0.1% collagenase (available from Worthington Biochemical corporation) was added.
# The tissue was incubated at 37° C. for about 75 minutes with gentle shaking. After the cell suspension was filtered through nylon meshes (No. 100), the cells were washed three times with two volumes of the buffer, and it was again filtered through nylon meshes. The volume was adjusted with the buffer so that the adipocyte was brought to 20% volume. A 0.1 ml aliquot of the cell suspension was added to plastic test tubes with 0.3 ml of the buffer containing vehicle or compound. The cells were incubated at 37° C. for 120 minutes with gentle shaking. The reaction solution (0.3 ml) was transferred to a centrifuge tube with […] of silicone oil (specific gravity 0.96, available from Shinetsu Chemical Industry), centrifuged at 18,500×g for one minute, and the reaction was stopped by removing the adipocyte from the buffer.
# The amount of glycerol generated from the hydrolysis of triglycerides in the buffer was determined by a method using glycerol-3-phosphate oxidase/p-chlorophenol. […] of the buffer was added to a 96-well plate which contained 0.2 ml of an assay mixture having the following composition: 50 mM Tris (pH 7.5), 5.4 mM p-chlorophenol, 250 mg/ml adenosine-5'-triphosphate disodium, 150 mg 4-aminoantipyrine, 250 U/l glycerol kinase, 500 U/l glycerol-3-phosphate oxidase, 1250 U/l horseradish peroxidase. The plate was incubated at 37° C. for 15 minutes, and then an absorbance at 505 nm was determined. The molar EC50 value is the molar concentration of compound that gives 50% of that compound's own maximum rate of lipolysis.
# human β3 receptor = target: T2, human β3 receptor (Homo sapiens, UniProt P13945); test: β3 agonistic activity on human β3 receptor (cAMP production in SK-N-MC human neuroblastoma cells); format: cell-based; settings: 0.5 h, 10^-6 M, 37° C., 30 minutes, vs maximum of isopreterenol at 10^-6 M, hydrochloride, read-out: Ability of cAMP production at 10^-6 M, % (vs. Isopreterenol (ISP))
# T2 construct: The human neuroblastoma cells (SK-N-MC) was available from American Type Culture Collection (HTB 10); host or cells: SK-N-MC human neuroblastoma cells
# Protocol: β3 agonistic activity on human β3 receptor
# The β3 agonistic activity of the compounds was determined by their abilities to stimulate the intracellular cAMP production of human neuroblast. The human neuroblastoma cells (SK-N-MC) was available from American Type Culture Collection (HTB 10), and the cells were cultured under the atmosphere of 5% CO2 at 37° C. on a 12-well plate in Dulbeccos' modified Eagle's medium containig 10% fetal calf serum. The SK-N-MC cells on reaching semi-confluence were washed twice with 1 ml of Hank's balanced salt solution (HBSS). After the cells were treated with 0.8 ml of HBSS containing 0.25 mM isobutylmethyl-xanthine at room temperature for 5 minutes, 0.1 ml of a test solution was added. Further, after incubation at 37° C. for 30 minutes, the reaction solution was aspirated, and washed twice with 2 ml of an ice-cooled phosphate-buffered saline (PBS). The cells were disrupted with 5 mM Tris buffer (pH 7.4) containing 2 mM EDTA, centrifuged at 18,500×g for one minute, and cAMP concentration in the supernatant was determined by EIA kit (available from Amersham). The ability of cAMP production was determined as a percentage of the compound to maximum activity of cAMP production of isopreterenol at 10^-6 M concentration (Proc. Natl. Acad. Sci. USA, 90, 3665, 1993).
# [6] = system: male KKAy mice with hyperglycemia; test: Anti-hyperglycemic activity in male KKAy mice; format: in vivo, mouse; settings: 1 mg/kg, orally for 4 days, measured on 5th day; hydrochloride
# Protocol: The anti-hyperglycemic effect of the present compounds was determined using male KKAy mice with hyperglycemia of 300 mg/dl or more. The compound was orally administrated successively to the hyperglycemic mice for 4 days, and the blood glucose level was measured on the 5th day. The activity of the compounds was compared in terms of percent reduction in blood glucose level (a percentage of the blood glucose level after administration to that before administration). The measurement of blood glucose level was made by the method in which tail vein of mice was dissected with a scalpel and the blood was dropped onto an electrode of glucose sensor (Touekou Super, available from Kodama).
# T2 sequence (P13945 whole entry): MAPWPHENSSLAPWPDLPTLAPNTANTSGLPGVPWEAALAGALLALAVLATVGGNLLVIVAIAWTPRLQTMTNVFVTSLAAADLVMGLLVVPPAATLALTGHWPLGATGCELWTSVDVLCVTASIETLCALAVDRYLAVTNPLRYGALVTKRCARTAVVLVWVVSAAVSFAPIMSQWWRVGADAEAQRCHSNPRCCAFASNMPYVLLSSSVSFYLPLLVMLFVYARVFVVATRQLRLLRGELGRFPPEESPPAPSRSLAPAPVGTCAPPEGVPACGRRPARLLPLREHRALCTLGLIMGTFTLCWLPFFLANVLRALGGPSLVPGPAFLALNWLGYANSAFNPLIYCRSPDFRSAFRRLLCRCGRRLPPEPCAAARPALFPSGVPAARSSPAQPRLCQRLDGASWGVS
# T1 sequence (P26255 whole entry): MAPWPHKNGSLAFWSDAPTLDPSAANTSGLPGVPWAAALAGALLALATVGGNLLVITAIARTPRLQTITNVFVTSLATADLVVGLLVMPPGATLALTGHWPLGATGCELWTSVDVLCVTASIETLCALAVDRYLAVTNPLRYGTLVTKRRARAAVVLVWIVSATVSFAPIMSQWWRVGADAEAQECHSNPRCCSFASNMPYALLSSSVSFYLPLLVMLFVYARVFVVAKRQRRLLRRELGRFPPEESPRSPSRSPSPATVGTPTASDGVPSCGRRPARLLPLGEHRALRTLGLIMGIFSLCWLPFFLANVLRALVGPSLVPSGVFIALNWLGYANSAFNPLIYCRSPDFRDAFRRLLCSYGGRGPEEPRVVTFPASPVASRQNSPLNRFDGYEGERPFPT
SMILES,EC50 (β3 [5]),"Percent reduction in blood glucose level, % [6]",other results
COC(=O)COc1ccc(C[C@@H](C)NC[C@H](O)c2cccc(Cl)c2)cc1 (relative stereo) [BRL 35135],–,–,"lipolytic activity (β3) in rats, in words (β3 [1]): lipolytic activity (β3) in rats; β3 agonistic activity, in words (β3 [2]): has β3 agonistic activity; β1 or β2 agonistic activity, in words (β1 or β2): has β1 or β2 agonistic activity; anti-hyperglycemic activity, in words [3]: anti-hyperglycemic activity; anti-obesity activity, in words [4]: anti-obesity activity"
C[C@H](Cc1ccc(OCC(=O)O)cc1)NC[C@H](O)c1cccc(Cl)c1 (relative stereo) [BRL 37344],–,–,"anti-hyperglycemic activity, in words [3]: anti-hyperglycemic activity; anti-obesity activity, in words [4]: anti-obesity activity"
"COC(=O)C1COc2cc(CC(C)NCC(O)c3cccc(OC)c3)ccc2O1 (stereo not drawn) [Example 1, 6-{2-[2-Hydroxy-2-(3-methoxyphenyl)ethyl]amino}propyl-2,3-dihydro-1,4-benzodioxin-2-carboxylic acid methyl ester]",46 nM,53%,Emax at 1 µM (human β3 receptor): 21%
"COC(=O)C1COc2cc(CC(C)NCC(O)c3cccc(C)c3)ccc2O1 (stereo not drawn) [Example 2, 6-{2-[2-Hydroxy-2-(3-tolyl)ethyl]amino}propyl-2,3-dihydro-1,4-benzodioxin-2-carboxylic acid methyl ester]",4 nM,–,Emax at 1 µM (human β3 receptor): 25%
"CCOC(=O)C1COc2cc(CC(C)NCC(O)c3ccccc3)ccc2O1 (stereo not drawn) [Example 3, 6-[2-(2-Hydroxy-2-phenylethyl)amino]propyl-2,3-dihydro-1,4-benzodioxin-2-carboxylic acid ethyl ester]",9 nM,63%,–
"CCOC(=O)C1COc2ccc(CC(C)NCC(O)c3ccccc3)cc2O1 (stereo not drawn) [Example 4, 7-[2-(2-Hydroxy-2-phenylethyl)amino]propyl-2,3-dihydro-1,4-benzodioxin-2-carboxylic acid ethyl ester]",56 nM,–,–
"COC(=O)C1COc2cc(CC(C)NCC(O)c3ccc4c(c3)OCO4)ccc2O1 (stereo not drawn) [Example 5, 6-[2-(2-Hydroxy-2-piperonylethyl)amino]propyl-2,3-dihydro-1,4-benzodioxin-2-carboxylic acid methyl ester]",100 nM,–,–
"COC(=O)C1COc2cc(CC(C)NCC(O)c3cccc(Cl)c3)ccc2O1 (stereo not drawn) [Example 10, 6-{2-[2-(3-Chlorophenyl)-2-hydroxyethyl]amino}propyl-2,3-dihydro-1,4-benzodioxin-2-carboxylic acid methyl ester]",–,48%,Emax at 1 µM (human β3 receptor): 43%
"COC(=O)C1COc2cc(CC(C)NCC(O)c3cccc(C(F)(F)F)c3)ccc2O1 (stereo not drawn) [Example 11, 6-{2-[2-Hydroxy-2-(3-trifluoromethylphenyl)ethyl]amino}propyl-2,3-dihydro-1,4-benzodioxin-2-carboxylic acid methyl ester]",2.4 nM,–,–
"COC(=O)C1COc2cc(CC(C)NCC(O)c3ccc(F)cc3)ccc2O1 (stereo not drawn) [Example 12, 6-{2-[2-Hydroxy-2-(4-fluorophenyl)ethyl]amino}propyl-2,3-dihydro-1,4-benzodioxin-2-carboxylic acid methyl ester]",26 nM,–,Emax at 1 µM (human β3 receptor): 29%
"CCOC(=O)[C@H]1COc2cc(C[C@@H](C)NC[C@H](O)c3cccc(Cl)c3)ccc2O1 [Example 28, (2R,2'R,2""R)-6-{2-[2-(3-Chlorophenyl)-2-hydroxyethyl]amino}propyl-2,3-dihydro-1,4-benzodioxin-2-carboxylic acid ethyl ester hydrochloride]",0.1 nM,42%,–
"CCOC(=O)[C@H]1COc2cc(C[C@H](C)NC[C@H](O)c3cccc(Cl)c3)ccc2O1 [Example 29, (2R,2'S,2""R)-6-{2-[2-(3-Chlorophenyl)-2-hydroxyethyl]amino}propyl-2,3-dihydro-1,4-benzodioxin-2-carboxylic acid ethyl ester]",1.7 nM,54%,–
"CCOC(=O)[C@@H]1COc2cc(C[C@@H](C)NC[C@H](O)c3cccc(Cl)c3)ccc2O1 [Example 30, (2S,2'R,2""R)-6-{2-[2-(3-Chlorophenyl)-2-hydroxyethyl]amino}propyl-2,3-dihydro-1,4-benzodioxin-2-carboxylic acid ethyl ester]",16 nM,–,–
"CCOC(=O)[C@@H]1COc2cc(C[C@H](C)NC[C@H](O)c3cccc(Cl)c3)ccc2O1 [Example 31, (2S,2'S,2""R)-6-{2-[2-(3-Chlorophenyl)-2-hydroxyethyl]amino}propyl-2,3-dihydro-1,4-benzodioxin-2-carboxylic acid ethyl ester]",100 nM,–,–
